Assays:
[1] = target: Recombinant human c-Cbl (aa 47-435) (Homo sapiens (Human), UniProt P22681); assay: c-Cbl Biochemical Assay (TR-FRET)
How it was run: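 Biotinylated c-Cbl (6 nM) preincubated 30 min RT with compound, then reacted 60-90 min with Src-Zap70 (2.5-10 nM) and 0.5 mM ATP, pH 7.0 HEPES buffer. Stopped with EDTA; 100 nM Bodipy-ubiquitinated UBE2D2 binding read by TR-FRET after 60 min; IC50 from 4-parameter fit.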

[2] = target: Recombinant human Cbl-b (aa 36-427) (Homo sapiens (Human), UniProt Q13191); assay: Cbl-b Biochemical Assay (TR-FRET); conditions: read-out: TR-FRET hCbl-b IC50
Chain of Recombinant human Cbl-b (aa 36-427) (Q13191 36-427): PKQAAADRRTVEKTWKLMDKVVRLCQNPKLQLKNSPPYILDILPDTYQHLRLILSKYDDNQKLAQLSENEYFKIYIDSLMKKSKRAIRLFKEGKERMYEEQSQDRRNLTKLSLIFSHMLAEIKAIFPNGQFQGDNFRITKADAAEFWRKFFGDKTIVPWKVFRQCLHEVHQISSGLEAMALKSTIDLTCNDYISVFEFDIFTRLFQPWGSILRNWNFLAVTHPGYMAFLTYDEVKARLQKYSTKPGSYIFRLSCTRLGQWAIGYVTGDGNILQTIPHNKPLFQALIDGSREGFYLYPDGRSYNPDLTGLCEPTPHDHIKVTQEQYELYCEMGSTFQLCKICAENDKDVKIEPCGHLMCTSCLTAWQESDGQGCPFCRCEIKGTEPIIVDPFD
How it was run: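 Two-step TR-FRET: 6 nM biotinylated Cbl-b preincubated 30-60 min with compound, then 60 min at RT with 1-2.5 nM Src-Zap70 and 0.5 mM ATP in HEPES pH 7.0 buffer, 1% DMSO. Stopped with 5 mM EDTA plus 100 nM UBE2D2-Ub-FL-BODIPY and 1 nM streptavidin-Tb, 60 min; 520 nm signal; IC50 from 4-parameter fit.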

Chain of Recombinant human c-Cbl (aa 47-435) (P22681 47-435): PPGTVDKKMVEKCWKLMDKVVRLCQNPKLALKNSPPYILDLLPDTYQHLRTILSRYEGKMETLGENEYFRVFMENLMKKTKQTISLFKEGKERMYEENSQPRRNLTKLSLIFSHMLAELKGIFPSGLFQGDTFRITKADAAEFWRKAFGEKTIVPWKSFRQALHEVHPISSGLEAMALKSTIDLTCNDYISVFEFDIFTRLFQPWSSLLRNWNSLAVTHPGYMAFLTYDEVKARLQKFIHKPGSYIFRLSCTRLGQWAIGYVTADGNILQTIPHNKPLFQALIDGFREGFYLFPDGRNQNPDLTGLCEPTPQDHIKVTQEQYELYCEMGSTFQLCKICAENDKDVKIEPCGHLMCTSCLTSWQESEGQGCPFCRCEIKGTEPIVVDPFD

Compound | IC50 [1] | IC50 [2]
COC[C@H](C)NCc1ccc2c(c1)C(=O)N(c1cc(-c3ccc(C#N)cc3-c3nncn3C)cc(C3CC3)n1)C2 [AIR-2, (S)-4-(2-cyclopropyl-6-(6-(((1-methoxypropan-2-yl)amino)methyl)-1-oxoisoindolin-2-yl)pyridin-4-yl)-3-(4-methyl-4H-1,2,4-triazol-3-yl)benzonitrile] | ≤ 200 nM | ≤ 200 nM
CO[C@@H](C)CNCc1ccc2c(c1)C(=O)N(c1cc(-c3ccc(C#N)cc3-c3nncn3C)cc(C3CC3)n1)C2 [AIM-2, 4-{2-cyclopropyl-6-[6-({[(2S)-2-methoxypropyl]amino}methyl)-1-oxo-3H-isoindol-2-yl]pyridin-4-yl}-3-(4-methyl-1,2,4-triazol-3-yl) benzonitrile] | ≤ 200 nM | ≤ 200 nM
Cn1cnnc1-c1cc(C#N)ccc1-c1cc(C2CC2)nc(N2Cc3c(F)cc(CN4CC5(COC5)C4)cc3C2=O)c1 [AMS-2, 4-[2-Cyclopropyl-6-(4-fluoro-6-{2-oxa-6-azaspiro [3.3]heptan-6-ylmethyl}-1-oxo-3H-isoindol-2-yl)pyridin-4-yl]-3-(4-methyl-1,2,4-triazol-3-yl)benzonitrile] | ≤ 200 nM | ≤ 200 nM
C[C@H](NCC1COC1)c1ccc2c(c1)C(=O)N(c1cc(-c3ccc(C#N)cc3-c3nncn3C)cc(C3CC3)n1)C2 [ANO-1, (S)-4-(2-Cyclopropyl-6-(6-(1-((oxetan-3-ylmethyl)amino)ethyl)-1-oxoisoindolin-2-yl)pyridin-4-yl)-3-(4-methyl-4H-1,2,4-triazol-3-yl)benzonitrile] | ≤ 200 nM | ≤ 200 nM
CN1CC[C@@H](NCc2ccc3c(c2)C(=O)N(c2cc(-c4ccc(C#N)cc4-c4nncn4C)cc(C4CC4)n2)C3)C1=O [AIZ-2, 4-{2-Cyclopropyl-6-[6-({[(3R)-1-methyl-2-oxopyrrolidin-3-yl]amino}methyl)-1-oxo-3H-isoindol-2-yl]pyridin-4-yl}-3-(4-methyl-1,2,4-triazol-3-yl)benzonitrile] | ≤ 200 nM | ≤ 200 nM
Cn1cnnc1-c1cc(C#N)ccc1-c1cc(C2CC2)nc(N2Cc3ccc(CNC4CCOC4)cc3C2=O)c1 (stereo in doubt) [ANP-2, 4-[2-Cyclopropyl-6-(1-oxo-6-{[(3S)-oxolan-3-ylamino]methyl}-3H-isoindol-2-yl)pyridin-4-yl]-3-(4-methyl-1,2,4-triazol-3-yl)benzonitrile] | ≤ 200 nM | ≤ 200 nM
Cn1cnnc1-c1cc(C#N)ccc1-c1cc(C2CC2)nc(N2Cc3c(F)cc(CN4CC[C@@H]5COC[C@H]54)cc3C2=O)c1 [AOU-1, 4-(2-Cyclopropyl-6-(4-fluoro-6-(((3aS,6aS)-hexahydro-1H-furo[3,4-b]pyrrol-1-yl)methyl)-1-oxoisoindolin-2-yl)pyridin-4-yl)-3-(4-methyl-4H-1,2,4-triazol-3-yl)benzonitrile] | ≤ 200 nM | ≤ 200 nM
Cn1cnnc1-c1cc(C#N)ccc1-c1cc(C2CC2)nc(N2Cc3ccc(CNCC4CCCC4)cc3C2=O)c1 [AIG-1, 4-[2-(6-{[(Cyclopentylmethyl)amino]methyl}-1-oxo-3H-isoindol-2-yl)-6-cyclopropylpyridin-4-yl]-3-(4-methyl-1,2,4-triazol-3-yl)benzonitrile] | ≤ 200 nM | ≤ 200 nM
C[C@H]1CCCN(Cc2ccc3c(c2)C(=O)N(c2cc(-c4ccc(C#N)cc4-c4nncn4C)cc(C4CC4)n2)C3)C1 [ALS-1, 4-[2-Cyclopropyl-6-(6-{[(3S)-3-methylpiperidin-1-yl]methyl}-1-oxo-3H-isoindol-2-yl)pyridin-4-yl]-3-(4-methyl-1,2,4-triazol-3-yl)benzonitrile] | ≤ 200 nM | ≤ 200 nM
Cn1cnnc1-c1cc(C#N)ccc1-c1cc(C2CC2)nc(N2Cc3c(cc(CNCCOC(F)(F)F)c(F)c3F)C2=O)c1 [ALY-2, 4-{2-Cyclopropyl-6-[4,5-difluoro-1-oxo-6-({[2-(trifluoromethoxy)ethyl]amino}methyl)-3H-isoindol-2-yl]pyridin-4-yl}-3-(4-methyl-1,2,4-triazol-3-yl)benzonitrile] | ≤ 200 nM | ≤ 200 nM
Cn1cnnc1-c1cc(C#N)ccc1-c1cc(C2CC2)nc(N2Cc3ccc([C@H]4COC[C@@H](C5CCC5)N4)cc3C2=O)c1 (stereo in doubt) [AOR-1, rel-4-(2-{6-[(3R,5S)-5-Cyclobutylmorpholin-3-yl]-1-oxo-3H-isoindol-2-yl}-6-cyclopropylpyridin-4-yl)-3-(4-methyl-1,2,4-triazol-3-yl)benzonitrile] | ≤ 200 nM | ≤ 200 nM
C[C@@H](NCc1ccc2c(c1)C(=O)N(c1cc(-c3ccc(C#N)cc3-c3nncn3C)cc(C3CC3)n1)C2)C1COC1 [ANJ-2, (R)-4-(2-Cyclopropyl-6-(6-(((1-(oxetan-3-yl)ethyl)amino)methyl)-1-oxoisoindolin-2-yl)pyridin-4-yl)-3-(4-methyl-4H-1,2,4-triazol-3-yl)benzonitrile] | ≤ 200 nM | ≤ 200 nM
CNC[C@H](O)COc1ccc2c(c1)C(=O)N(c1cc(-c3ccc(C#N)cc3-c3nncn3C)cc(C3CC3)n1)C2 [AJU-3, 4-(2-Cyclopropyl-6-{6-[(2S)-2-hydroxy-3-(methylamino)propoxy]-1-oxo-3H-isoindol-2-yl}pyridin-4-yl)-3-(4-methyl-1,2,4-triazol-3-yl) benzonitrile] | ≤ 200 nM | ≤ 200 nM
Cn1cnnc1-c1cc(C#N)ccc1-c1cc(C2CC2)nc(N2Cc3ccc(OC[C@@H](O)CO)cc3C2=O)c1 [AJM-3, (S)-4-(2-Cyclopropyl-6-(6-(2,3-dihydroxypropoxy)-1-oxoisoindolin-2-yl)pyridin-4-yl)-3-(4-methyl-4H-1,2,4-triazol-3-yl)benzonitrile] | ≤ 200 nM | ≤ 200 nM
Cn1cnnc1-c1cc(C#N)ccc1-c1cc(C2CC2)nc(N2Cc3ccc(CNCC4CC4)cc3C2=O)c1 [AIB-2, 4-(2-Cyclopropyl-6-(6-(((cyclopropylmethyl)amino)methyl)-1-oxoisoindolin-2-yl)pyridin-4-yl)-3-(4-methyl-4H-1,2,4-triazol-3-yl)benzonitrile] | ≤ 200 nM | ≤ 200 nM
C[C@@H]1[C@@H](O)CCN1Cc1cc(F)c2c(c1)C(=O)N(c1cc(-c3ccc(C#N)cc3-c3nncn3C)cc(C3CC3)n1)C2 [ANC-2, 4-[2-Cyclopropyl-6-(4-fluoro-6-{[(2R,3S)-3-hydroxy-2-methylpyrrolidin-1-yl]methyl}-1-oxo-3H-isoindol-2-yl)pyridin-4-yl]-3-(4-methyl-1,2,4-triazol-3-yl)benzonitrile] | ≤ 200 nM | ≤ 200 nM
Cn1cnnc1-c1cc(C#N)ccc1-c1cc(C2CC2)nc(N2Cc3c(F)cc(CN4CC[C@H]5C[C@H]54)cc3C2=O)c1 [AMX-3, 4-(2-{6-[(1R,5S)-2-Azabicyclo[3.1.0]hexan-2-ylmethyl]-4-fluoro-1-oxo-3H-isoindol-2-yl}-6-cyclopropylpyridin-4-yl)-3-(4-methyl-1,2,4-triazol-3-yl)benzonitrile] | ≤ 200 nM | ≤ 200 nM
CN(Cc1cc(F)c2c(c1)C(=O)N(c1cc(-c3ccc(F)cc3-c3nncn3C)cc(C3CC3)n1)C2)CC1(O)CCC1 [AML-1, 2-{6-Cyclopropyl-4-[4-fluoro-2-(4-methyl-1,2,4-triazol-3-yl)phenyl]pyridin-2-yl}-4-fluoro-6-({[(1-hydroxycyclobutyl)methyl](methyl)amino}methyl)-3H-isoindol-1-one] | ≤ 200 nM | ≤ 200 nM
C[C@H](NCC1CCC1)c1ccc2c(c1)C(=O)N(c1cc(-c3ccc(C#N)cc3-c3nncn3C)cc(C3CC3)n1)C2 [AKB-1, (S)-4-(2-(6-(1-((Cyclobutylmethyl)amino)ethyl)-1-oxoisoindolin-2-yl)-6-cyclopropylpyridin-4-yl)-3-(4-methyl-4H-1,2,4-triazol-3-yl)benzonitrile] | ≤ 200 nM | ≤ 200 nM
COC[C@H](C)NCc1cc(F)c2c(c1)C(=O)N(c1cc(-c3ccc(C#N)cc3-c3nncn3C)cc(C3CC3)c1)C2 [ALH-1, 3′-Cyclopropyl-5′-[4-fluoro-6-({[(2S)-1-methoxypropan-2-yl]amino}methyl)-1-oxo-3H-isoindol-2-yl]-2-(4-methyl-1,2,4-triazol-3-yl)-[1,1′-biphenyl]-4-carbonitrile] | ≤ 200 nM | ≤ 200 nM
Cn1cnnc1-c1cc(C#N)ccc1-c1cc(C2CC2)nc(N2Cc3ccc(CNC[C@@H]4CCOC4)cc3C2=O)c1 [ANY-2, 4-{2-Cyclopropyl-6-[1-oxo-6-({[(3S)-oxolan-3-ylmethyl]amino}methyl)-3H-isoindol-2-yl]pyridin-4-yl}-3-(4-methyl-1,2,4-triazol-3-yl)benzonitrile] | ≤ 200 nM | ≤ 200 nM
Cn1cnnc1-c1cc(C#N)ccc1-c1cc(C2CC2)nc(N2Cc3ccc(CNCC45CC(C4)C5)cc3C2=O)c1 [AKD-2, 4-(2-{6-[({Bicyclo[1.1.1]pentan-1-ylmethyl}amino)methyl]-1-oxo-3H-isoindol-2-yl}-6-cyclopropylpyridin-4-yl)-3-(4-methyl-1,2,4-triazol-3-yl)benzonitrile] | ≤ 200 nM | ≤ 200 nM
Cn1cnnc1-c1ccccc1-c1cc(N2Cc3c(cccc3C(F)(F)F)C2=O)cc2cc[nH]c12 [AHY-5, 2-{7-[2-(4-Methyl-1,2,4-triazol-3-yl)phenyl]-1H-indol-5-yl}-4-(trifluoromethyl)-3H-isoindol-1-one] | 10000 to 50000 nM | 10000 to 50000 nM
C[C@H]1CCCN(Cc2cc(F)c3c(c2)C(=O)N(c2cc(-c4ccc(C#N)cc4-c4nncn4C)cc(C4CC4)n2)C3)C1 [AKY-1, 4-[2-Cyclopropyl-6-(4-fluoro-6-{[(3S)-3-methylpiperidin-1-yl]methyl}-1-oxo-3H-isoindol-2-yl)pyridin-4-yl]-3-(4-methyl-1,2,4-triazol-3-yl)benzonitrile] | ≤ 200 nM | ≤ 200 nM

Reference: patent US12325697B2 (Nimbus Clio, Inc., priority 2021, dated 2025)
